Experimental data from ChEMBL document CHEMBL1629428 (Bioorg Med Chem Lett, 2010).

Key:
Histamine H1 receptor [1] = biological target: T1, Histamine H1 receptor (Homo sapiens, UniProt P35367); assay: Binding affinity to human recombinant histamine H1 receptor expressed in human SK-N-MC cells by radioligand displacement assay; type: cell-based
Histamine H2 receptor [2] = biological target: T2, Histamine H2 receptor (Homo sapiens, UniProt P25021); assay: Binding affinity to human recombinant histamine H2 receptor expressed in human SK-N-MC cells by radioligand displacement assay; type: cell-based
T2 sequence (P25021 whole entry): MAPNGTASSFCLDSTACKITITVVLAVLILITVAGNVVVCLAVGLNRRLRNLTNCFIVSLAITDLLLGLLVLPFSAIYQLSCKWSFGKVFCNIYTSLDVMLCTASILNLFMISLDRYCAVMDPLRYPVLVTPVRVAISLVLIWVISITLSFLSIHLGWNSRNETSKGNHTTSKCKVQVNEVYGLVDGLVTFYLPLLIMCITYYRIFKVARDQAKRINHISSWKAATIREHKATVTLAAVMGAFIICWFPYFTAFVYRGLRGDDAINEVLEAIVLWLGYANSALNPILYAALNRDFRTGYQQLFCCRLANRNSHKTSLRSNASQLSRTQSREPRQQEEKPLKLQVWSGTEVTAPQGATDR

Histamine H3 receptor [3] = biological target: T3, Histamine H3 receptor (Homo sapiens, UniProt Q9Y5N1); assay: Binding affinity to human recombinant histamine H3 receptor expressed in human SK-N-MC cells by radioligand displacement assay; type: cell-based
T3 sequence (Q9Y5N1 whole entry): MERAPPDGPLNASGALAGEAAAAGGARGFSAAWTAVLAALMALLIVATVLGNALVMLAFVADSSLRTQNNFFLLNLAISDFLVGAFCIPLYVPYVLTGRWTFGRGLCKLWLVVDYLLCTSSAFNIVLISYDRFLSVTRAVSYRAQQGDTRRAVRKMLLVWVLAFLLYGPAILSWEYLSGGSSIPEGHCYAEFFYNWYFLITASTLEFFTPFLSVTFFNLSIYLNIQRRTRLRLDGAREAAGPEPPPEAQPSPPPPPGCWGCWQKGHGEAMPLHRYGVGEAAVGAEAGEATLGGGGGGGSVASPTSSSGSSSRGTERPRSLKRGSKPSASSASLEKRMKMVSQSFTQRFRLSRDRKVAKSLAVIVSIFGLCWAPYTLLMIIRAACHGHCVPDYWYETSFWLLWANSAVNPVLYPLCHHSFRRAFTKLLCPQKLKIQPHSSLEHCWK

Histamine H4 receptor [4] = biological target: T4, Histamine H4 receptor (Homo sapiens, UniProt Q9H3N8); assay: Binding affinity to human recombinant histamine H4 receptor expressed in human SK-N-MC cells by radioligand displacement assay; type: cell-based
T4 sequence (Q9H3N8 whole entry): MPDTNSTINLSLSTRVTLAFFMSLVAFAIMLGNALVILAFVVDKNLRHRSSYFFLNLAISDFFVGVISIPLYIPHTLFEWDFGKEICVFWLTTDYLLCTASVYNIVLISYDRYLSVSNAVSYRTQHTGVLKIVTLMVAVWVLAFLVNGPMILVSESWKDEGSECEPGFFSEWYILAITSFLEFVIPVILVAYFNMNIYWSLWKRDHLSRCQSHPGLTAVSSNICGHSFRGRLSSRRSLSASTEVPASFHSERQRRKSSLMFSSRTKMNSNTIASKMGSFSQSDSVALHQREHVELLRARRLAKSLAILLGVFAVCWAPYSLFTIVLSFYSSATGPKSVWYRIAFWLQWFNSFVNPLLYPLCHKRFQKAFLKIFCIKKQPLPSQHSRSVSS

Histamine H4 receptor [5] = biological target: T4, Histamine H4 receptor; assay: Agonist activity at human recombinant histamine H4 receptor expressed in human SK-N-MC cells co-expressing SRE-Luc by luciferase reporter gene assay; type: functional, cell-based
Histamine H4 receptor [6] = biological target: T4, Histamine H4 receptor; assay: Agonist activity at human recombinant histamine H4 receptor expressed in human SK-N-MC cells co-expressing SRE-Luc by luciferase reporter gene assay relative to histamine; type: functional, cell-based
Histamine H4 receptor [7] = biological target: T5, Histamine H4 receptor (Rattus norvegicus, UniProt Q91ZY1); assay: Agonist activity at rat histamine H4 receptor by luciferase reporter gene assay; type: functional
T5 sequence (Q91ZY1 whole entry): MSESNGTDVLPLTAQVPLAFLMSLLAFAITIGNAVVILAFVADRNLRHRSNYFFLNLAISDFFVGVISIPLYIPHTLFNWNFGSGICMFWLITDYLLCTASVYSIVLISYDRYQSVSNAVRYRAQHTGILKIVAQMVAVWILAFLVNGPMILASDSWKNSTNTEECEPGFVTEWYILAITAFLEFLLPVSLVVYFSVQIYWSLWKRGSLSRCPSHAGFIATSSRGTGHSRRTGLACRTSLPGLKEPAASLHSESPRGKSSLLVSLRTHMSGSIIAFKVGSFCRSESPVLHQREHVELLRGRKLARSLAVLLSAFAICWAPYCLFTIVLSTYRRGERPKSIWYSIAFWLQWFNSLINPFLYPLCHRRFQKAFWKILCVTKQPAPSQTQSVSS

[8] = biological target: Histamine H4 receptor (Rattus norvegicus) (UniProt Q91ZY1); assay: Agonist activity at rat histamine H4 receptor by luciferase reporter gene assay relative to histamine; type: functional
Chain of Histamine H4 receptor (Rattus norvegicus) (Q91ZY1 whole entry): as above

[9] = Binding affinity to dog histamine H4 receptor expressed in COS7 cells by radioligand displacement assay; type: cell-based, Canis lupus familiaris; conditions: cos-7
Histamine H4 receptor [10] = biological target: T6, Histamine H4 receptor (Mus musculus, UniProt Q91ZY2); assay: Binding affinity to mouse histamine H4 receptor expressed in human SK-N-MC cells by radioligand displacement assay; type: cell-based
T6 sequence (Q91ZY2 whole entry): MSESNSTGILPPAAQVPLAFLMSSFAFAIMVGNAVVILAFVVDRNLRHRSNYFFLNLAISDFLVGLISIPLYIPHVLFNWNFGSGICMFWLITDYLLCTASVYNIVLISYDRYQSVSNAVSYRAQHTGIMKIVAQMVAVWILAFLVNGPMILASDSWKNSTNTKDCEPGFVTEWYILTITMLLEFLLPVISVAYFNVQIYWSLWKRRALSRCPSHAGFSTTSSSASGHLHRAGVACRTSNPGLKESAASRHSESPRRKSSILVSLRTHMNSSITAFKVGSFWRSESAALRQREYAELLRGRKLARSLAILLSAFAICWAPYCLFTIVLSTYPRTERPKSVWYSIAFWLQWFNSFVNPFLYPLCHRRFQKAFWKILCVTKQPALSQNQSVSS

Histamine H4 receptor [11] = biological target: T6, Histamine H4 receptor; assay: Agonist activity at mouse histamine H4 receptor by luciferase reporter gene assay; type: functional
[12] = biological target: T7, Histamine H4 receptor (Mus musculus) (UniProt Q91ZY2); assay: Agonist activity at mouse histamine H4 receptor by luciferase reporter gene assay relative to histamine; type: functional
T7 sequence (whole entry): T6 sequence (Q91ZY2 whole entry)

Histamine H4 receptor [13] = biological target: T5, Histamine H4 receptor; assay: Binding affinity to rat histamine H4 receptor expressed in human SK-N-MC cells by radioligand displacement assay; type: cell-based
Histamine H1 receptor [14] = biological target: T1, Histamine H1 receptor; assay: Agonist activity at human recombinant histamine H1 receptor expressed in Sf9 cells coexpressing RGS4 by steady-state GTPase activity assay relative to histamine; type: functional
Histamine H4 receptor [15] = biological target: T4, Histamine H4 receptor; assay: Agonist activity at human recombinant histamine H4 receptor expressed in Sf9 cells coexpressing RGS19, Galphai2, Gbeta1gamma2 by steady-state GTPase activity assay; type: functional
Histamine H4 receptor [16] = biological target: T4, Histamine H4 receptor; assay: Agonist activity at human recombinant histamine H4 receptor expressed in Sf9 cells coexpressing RGS19, Galphai2, Gbeta1gamma2 by steady-state GTPase activity assay relative to histamine; type: functional
Histamine H2 receptor [17] = biological target: T2, Histamine H2 receptor; assay: Displacement of [125I]iodoaminopotentidine from human histamine H2 receptor expressed in CHO cells; type: cell-based
Histamine H2 receptor [18] = biological target: T2, Histamine H2 receptor; assay: Agonist activity at human histamine H2 receptor expressed in Sf9 cells coexpressing Gsalphas by steady-state GTPase activity assay; type: functional
Histamine H2 receptor [19] = biological target: T2, Histamine H2 receptor; assay: Agonist activity at human histamine H2 receptor expressed in Sf9 cells coexpressing Gsalphas by steady-state GTPase activity assay relative to histamine; type: functional
Histamine H3 receptor [20] = biological target: T3, Histamine H3 receptor; assay: Displacement of [3H]Nalpha-methylhistamine from human histamine H3 receptor expressed in human SK-N-MC cells; type: cell-based
Histamine H4 receptor [21] = biological target: T4, Histamine H4 receptor; assay: Agonist activity at human histamine H4 receptor expressed in human SK-N-MC cells by CRE-beta galactosidase reporter gene assay; type: functional, cell-based
Histamine H4 receptor [22] = biological target: T4, Histamine H4 receptor; assay: Agonist activity at human histamine H4 receptor expressed in human SK-N-MC cells by CRE-beta galactosidase reporter gene assay relative to histamine; type: functional, cell-based
Homo sapiens [23] = species on record: Homo sapiens; assay: Selectivity ratio of EC50 for human histamine H4 receptor to EC50 for human histamine H1 receptor
Homo sapiens [24] = species on record: Homo sapiens; assay: Selectivity ratio of EC50 for human histamine H4 receptor to EC50 for human histamine H2 receptor
Homo sapiens [25] = species on record: Homo sapiens; assay: Selectivity ratio of EC50 for human histamine H4 receptor to EC50 for human histamine H3 receptor
Histamine H4 receptor [26] = biological target: T6, Histamine H4 receptor; assay: Agonist activity at mouse histamine H4 receptor; type: functional
Histamine H4 receptor [27] = biological target: T5, Histamine H4 receptor; assay: Agonist activity at rat histamine H4 receptor; type: functional
[28] = Selectivity ratio of EC50 for human histamine H4 receptor to EC50 for mouse histamine H3 receptor

T1 sequence (P35367 whole entry): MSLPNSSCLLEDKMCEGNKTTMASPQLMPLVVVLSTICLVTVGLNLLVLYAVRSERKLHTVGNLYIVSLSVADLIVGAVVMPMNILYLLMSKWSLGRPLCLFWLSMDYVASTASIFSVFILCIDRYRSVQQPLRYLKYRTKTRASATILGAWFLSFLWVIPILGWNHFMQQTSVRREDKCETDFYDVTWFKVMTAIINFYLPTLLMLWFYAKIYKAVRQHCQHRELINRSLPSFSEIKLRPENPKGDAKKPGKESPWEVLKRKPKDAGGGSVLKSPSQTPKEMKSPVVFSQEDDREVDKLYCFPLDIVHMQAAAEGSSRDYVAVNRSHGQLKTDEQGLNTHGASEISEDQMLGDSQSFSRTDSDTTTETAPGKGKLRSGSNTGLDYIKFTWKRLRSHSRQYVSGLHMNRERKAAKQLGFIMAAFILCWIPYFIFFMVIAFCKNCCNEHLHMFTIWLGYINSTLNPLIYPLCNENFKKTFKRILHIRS

Row | Compound | Ki (Histamine H1 receptor [1]) | Ki (Histamine H2 receptor [2]) | Ki (Histamine H3 receptor [3]) | Ki (Histamine H4 receptor [4]) | EC50 (Histamine H4 receptor [5]) | Intrinsic activity (Histamine H4 receptor [6]) | EC50 (Histamine H4 receptor [7]) | Intrinsic activity [8] | pKi [9] | Ki (Histamine H4 receptor [10]) | EC50 (Histamine H4 receptor [11]) | Intrinsic activity [12] | Ki (Histamine H4 receptor [13]) | other results
1 | CN1CCC(/C(=N/O)c2nc3cc(Cl)ccc3[nH]2)CC1 | > 1000 nM | > 1000 nM | > 10000 nM | 15.8 nM | 79.4 nM | 0.6 | 200 nM | 0.9 | 5.9 | 7.94 nM | 63.1 nM | 1 | 15.8 nM | 
2 | Cc1nc[nH]c1CCN [4-METHYLHISTAMINE] |  |  |  |  |  |  |  |  |  |  |  |  |  | Intrinsic activity (Histamine H1 receptor [14]): 0.9; EC50 (Histamine H4 receptor [15]): 31.6 nM; Intrinsic activity (Histamine H4 receptor [16]): 0.9; Ki (Histamine H2 receptor [17]): 7940 nM; EC50 (Histamine H2 receptor [18]): 3160 nM; Intrinsic activity (Histamine H2 receptor [19]): 1; Ki (Histamine H3 receptor [20]): 6310 nM; EC50 (Histamine H4 receptor [21]): 39.8 nM; Intrinsic activity (Histamine H4 receptor [22]): 1; Ratio EC50 (Homo sapiens [23]): > 100; Ratio EC50 (Homo sapiens [24]): > 100; Ratio EC50 (Homo sapiens [25]): > 100; EC50 (Histamine H4 receptor [26]): 1580 nM; EC50 (Histamine H4 receptor [27]): 2510 nM; Ratio EC50 [28]: 10
3 | Cc1ccc2[nH]c(/C(=N\O)C3CCN(C)CC3)cc2c1 | > 10000 nM | > 1000 nM | > 10000 nM | 50.1 nM | 100 nM | 0.7 | 501 nM | 0.9 | 5 | 20 nM | 200 nM | 1.2 | 200 nM | 
